Laboratory results published in US20230110128A1, “USE OF ANTIBODY DRUG CONJUGATES COMPRISING TUBULIN DISRUPTING AGENTS TO TREAT SOLID TUMOR” (Seagen Inc., priority 2018, published 2023).
Non-standard residues stand in square brackets, D forms with d. Residues, ends and D or L forms follow the SMILES beside them. *: point of attachment. Dolaproine = CO[C@@H]([C@@H]1CCCN1)[C@@H](C)C(=O)O; Dil = CC[C@H](C)[C@H](NC)[C@@H](CC(=O)O)OC; X1 = C[C@@H](N*)[C@@H](O)c1ccccc1; NMeV = CN[C@H](C(=O)O)C(C)C

Assays:
[1] = tested on: Hep3b, Huh7, and JHH7 cells; test: ATP secretion from liver tumor lines; format: cell-based; details: Huh7, JHH7, 24 hours
Experimental: Liver tumor lines Hep3b, Huh7, and JHH7 cells were treated with MMAE, Tubulysin M, vincristine, and Paclitaxel for 24 hours and analyzed for ATP secretion. […] Cells were washed and harvested, and subsequently co-cultured with enriched macrophages prepared as above. Macrophages were harvested 4 days after co-culture and assayed for immune activation by flow cytometry. Levels of costimulation (as measured by CD86 expression, JHH7) and antigen-presentation (as measured by frequency of MHCII-expressing cells, Hep3b, Huh7, and JHH7) were quantified and normalized to macrophages that were co-cultured with […]. […] Supernatant from the co-culture of macrophages and dying liver tumor cells was harvested 24 hours later and assayed for levels of cytokine and chemokine production by ELISA and normalized to macrophages that were co-cultured with untreated tumor cells.

[2] = tested on: Calu-1 cells co-cultured with macrophages; test: Cytokine and chemokine production in macrophage co-culture with treated Calu-1 cells; format: cell-based; details: Calu-1 co-culture supernatant 24 hours, ELISA, normalized to untreated
Experimental: Supernatant from the co-culture of macrophages and dying tumor cells was harvested 24 hours later and assayed for levels of cytokine and chemokine production by ELISA and normalized to macrophages that were co-cultured with untreated tumor cells as described above.

[3] = tested on: MCF7 cells co-cultured with macrophages; test: Cytokine and chemokine production in macrophage co-culture with treated MCF7 cells; format: cell-based; details: MCF7 co-culture supernatant 24 hours, ELISA, normalized to untreated
Experimental: (§1) MCF7 […] cells were treated with MMAE, an MMAE-containing ADC (anti-CD71 OKT9-1006), vincristine, and Paclitaxel for 24 hours. Cells were washed and harvested, and subsequently co-cultured with the enriched macrophages prepared above. Macrophages were harvested 4 days after co-culture and assayed for immune activation by flow cytometry. […] Supernatant from the co-culture of macrophages and dying MCF7 cells was harvested 24 hours later and assayed for levels of cytokine and chemokine production by ELISA and normalized to macrophages that were co-cultured with untreated tumor cells.

[4] = tested on: U-266 multiple myeloma cells; test: Western blot analysis of ER stress in U-266 cells; format: cell-based; details: MMAE 492 nM, SGN-CD48A 10 ng/ml, 24 and 48 hours
Experimental: U-266 multiple myeloma cells were treated with free MMAE (492 nM), an MMAE-containing ADC (SGN-CD48A, 10 ng/ml), and a non-binding MMAE-ADO (10 ng/ml) for 24 and 48 hours. Cells were harvested at each time point and whole cell lysates were prepared. Lysates for each sample were run on an SDS-Page and transferred onto a nitrocellulose membrane. Western blot analysis was performed using phospho-JNK Thr183/Tyr185 (pJNK), PARR, ATF4, […], phospho-IRE-1 Ser274 (pIRE-1). β-actin serves as a loading control. […] Importantly, the induction of ER stress by MMAE in U-266 cells was sufficient to elicit markers of ICD.

[5] = tested on: HeLa cervical cancer cells; test: Western blot analysis of ER stress in HeLa cells; format: cell-based; details: 1000 nM or 100 nM, 16 hours
Experimental: HeLa cervical cancer cells were treated with 1000 nM or 100 nM MMAE, Vincristine, or Paclitaxel for 16 hours and harvested for western blot analysis.

[6] = tested on: MiaPaca-CHOP-luciferase cells subcutaneously engrafted; test: Tumoral CHOP luciferase signal in engrafted MiaPaca-CHOP-luciferase tumors; format: in vivo, NOD/SCID/gamma-chain deficient mice; details: intratumorally; MMAE 0.36 mg/kg, vincristine 1.0 mg/kg, Paclitaxel 10 mg/kg
Experimental: MiaPaca-CHOP-luciferase cells were subcutaneously engrafted into NOD/SCID/gamma-chain deficient mice. Subcutaneous tumors were treated intratumorally with MMAE (0.36 mg/kg), vincristine (1.0 mg/kg), and Paclitaxel (10 mg/kg) and tumoral luciferase signal was monitored over time.

[7] = tested on: PC-3 prostate tumor cells; test: ATP secretion from PC-3 cells; format: cell-based
Experimental: PC-3 prostate tumor cells were also treated with MMAE, Vincristine, or Paclitaxel. Supernatant was collected after 16 hours of treatment, and analyzed for ATP secretion. […] PC-3 cells were treated for 24 hours with an MMAE-containing ADC (SGN-LIV1A) or MMAE and harvested in RIPA buffer for western blot analysis (FIG. 3C).

[8] = tested on: A2058, SK-MEL-5, SK-MEL-28, Calu-1, HT-1080, SK-MES-1 and BXPC3 cells; test: ATP secretion in a panel of solid tumor cell lines; format: cell-based; details: 7 cell lines, supernatant after 17 hours
Experimental: Skin tumor lines A2058, SK-MEL-5 and SK-MEL-28, Calu-1 (lung), HT-1080 (fibrosarcoma), SK-MES-1 (lung), and BXPC3 (pancreas) cells were treated with MMAE, vincristine, and Paclitaxel. Supernatant was collected after 17 hours of treatment, and analyzed for ATP secretion.

[9] = tested on: MCF7 cells co-cultured with macrophages; test: Macrophage antigen presentation after co-culture with treated MCF7 cells; format: cell-based; details: MCF7 treated 24 hours; macrophages harvested 4 days after co-culture
Experimental: as §1

[10] = tested on: Calu-1, HT1080 and SK-MES-1 cells co-cultured with macrophages; test: Macrophage costimulation/antigen presentation after co-culture with treated Calu-1, HT1080 and SK-MES-1 cells; format: cell-based; details: normalized to untreated
Experimental: Additional cell lines [Calu-1 (lung), HT1080 (fibrosarcoma) and SK-MES-1 […]] were tested for levels of antigen presentation after co culture with macrophages as above. Levels of costimulation (as measured by frequency of CD86-expressing macrophages, Calu-1) or antigen-presentation (as measured by frequency of MHCII-expressing macrophages, HT1080 and SK-MES-1) were quantified and normalized to macrophages that were co-cultured with untreated tumor cells. […] Calu-1, HT-1080, and SK-MES-1 cells were treated with an MMAE-containing ADC (anti-p97-MMAE), vincristine, or paclitaxel for 24 hours and analyzed for HMGB1 release by ELISA.

[11] = tested on: A2058 and SK-MEL-5 tumor cells co-cultured with macrophages; test: Cytokine and chemokine production in macrophage co-culture with treated A2058 and SK-MEL-5 cells; format: cell-based; details: A2058 and SK-MEL-5 co-culture supernatant 24 hours, ELISA, normalized to untreated
Experimental: Supernatant from the co-culture of macrophages and dying A2058 and SK-MEL-5 tumor cells was harvested 24 hours later and assayed for levels of cytokine and chemokine production by ELISA and normalized to macrophages that were co-cultured with untreated tumor cells.

CC[C@H](C)[C@@H]([C@@H](CC(=O)N1CCC[C@H]1[C@H](OC)[C@@H](C)C(=O)N[C@H](C)[C@@H](O)c1ccccc1)OC)N(C)C(=O)[C@@H](NC(=O)[C@@H](NC)C(C)C)C(C)C [MMAE, monomethyl auristatin E] (H-[NMeV]V[Dil][Dolaproine]-X1)
ATP secretion (cell lines responding) [1]: potent ATP secretion from 3 of 3 cell lines evaluated | Cytokine and chemokine production [2]: increase of the indicated cytokines and chemokines that was more robust than treatment with Paclitaxel | Cytokine and chemokine production [3]: increase of the indicated cytokines and chemokines that was more robust than treatment with Paclitaxel | ER stress response (ATF4 expression, phosphorylation of JNK) [4]: further increased the ER stress response | ER stress responses (phosphorylation of IRE1) [5]: activated ER stress responses | Severe ER stress response (phosphorylation of JNK) [5]: more severe ER stress response that was sustained with decreasing doses | Severe ER stress in engrafted tumors (tumoral luciferase signal over time) [6]: rapidly elicited severe ER stress | Release of ATP ([7]; FIG. 3D): release of ATP | ATP secretion ([7]; supernatant after 16 hours): robust ATP secretion | ATP secretion (cell lines responding) [8]: ATP secretion in most of the cell lines assayed (6/7) | ATP secretion response compared with Paclitaxel [8]: more robust response than Paclitaxel in all cell lines assayed | Macrophage antigen presentation (frequency of MHCII-expressing macrophages) [9]: increase in macrophage antigen presentation | Immune activation (CD86-expressing macrophages, Calu-1; MHCII-expressing macrophages, HT1080 and SK-MES-1) [10]: increase in immune activation in 3/3 tumor cell lines that was more robust than treatment with Paclitaxel | Cytokine and chemokine production [11]: increase of the indicated cytokines and chemokines that was more robust than treatment with Paclitaxel
